Earlier results as cited in patent publication US20230404934A1, “ON DEMAND AND LONG-TERM DRUG DELIVERY FROM DEGRADABLE NANOCAPSULES” (University of Maryland, Baltimore County, priority 2020, published 2023).

Conditions: topical to the eye

## Cc1ccc(=O)n(-c2ccccc2)c1 [pirfenidone, 5-methyl-1-phenylpyridin-2-one]
  amount in the back of the eye after topical administration: no measurable amounts in the back of the eye
  washout from the eye after topical administration: washes out very quickly, within minutes
